The source of these data is publication PMC8907207, “Multiplex quantification of C-terminal alpha-1-antitrypsin peptides provides a novel approach for characterizing systemic inflammation” (Scientific Reports, 2022).

Ends that are not written are not given here.

Data set [1] in a line: Freeze/thaw stability of QC samples. In kind it is in vitro ADME. The settings on record: QC in 70 g/L albumin in PBS, two cycles of freezing and thawing, LC-MS/MS. How it is done: (§1) Stability of analytes in processed samples was determined at six independent days for a time span of 20 h in the autosampler. Deviations of standing samples to freshly measured samples were below 19% at the LLOQ and below 9% for other QC levels for each analyte, respectively (Additional file 4). Stability of analytes in biological matrix was determined by consecutive cycles of freezing and thawing as well as extended intervals at room temperature from thawing to processing (approximately one hour).
(§2) Lyophilized authentic peptide standards were dissolved and diluted in a 70 g/L Albumin (from human serum, lyophilized, ≥ 99%, Sigma-Aldrich) in PBS (Sigma-Aldrich, St. Louis, MO, USA) solution. Internal standards C37^IS and C42^IS were dissolved in Milli-Q water (Millipore, Brussels, Belgium) containing 0.1% (v/v) formic acid (≥ 95%, Sigma-Aldrich) whereas C22^IS was only dissolved in ultrapure water. Mixtures of CAAPs used as calibration standards (calibrants) and quality control samples (QCs) were prepared as stock solution to a final concentration of 14 µM, respectively, (expect C40^SNP which was 5 µM) with subsequent serial dilutions. Calibrants and QCs were obtained from separate serial dilutions. Internal standard solution was prepared by adding equal volumes of each IS yielding a final concentration of 0.8 µM, respectively. All samples used for method development and validation were prepared and stored in 0.5 mL Protein LoBind Tubes (Eppendorf AG, Hamburg, Germany) in aliquots at − 80 °C until use.
(§3) Working range of calibrants was defined based on CAAPs detected in samples from healthy donors (set to approximate lower limit of quantification) and in samples from septic patients (set to middle to high calibration range) which were re-analyzed from a previously work[46]. Nine calibrants were used in total ranging from 0.01 µM to 1.5 µM thereby covering more than two orders of magnitude in concentration. Linearity was assessed determining mean linear regression coefficients of each calibration curve from 0.01 to 1.5 µM in eight independent analytical runs. However, respective LLOQs (lower limit of quantification) and ULOQs (upper limit of quantification) were defined individually based on natural occurrence (see above) and results from validation parameter directly affected individual working ranges (carry-over, specificity). Four QC samples were prepared and measured in total (QC1, QC2, QC3, and QC4) to cover the entire range of calibration. However, three QCs for each of the respective analytes were used for method validation. Carry-over was determined measuring pure albumin solutions prepared without internal standards (but equal amount and concentration of water/formic acid solution as regular internal standard solution, “blank albumin sample”) directly after the respective highest calibrants. Peak areas were compared to peak areas from respective LLOQ samples (prepared with regular internal standard solution). Specificity was assessed using single compounds at respective highest calibrant level which were prepared and calculated as described for carry-over. The specificity of analytes towards internal standards was determined using pure albumin solution with internal standard (“zero albumin sample”). Accuracy and precision was determined by back-calculated concentrations from repeated measurements of the same QC samples during one analytical run (within-run repeatability, n = 5) and from freshly prepared samples during five independent analytical runs (between-run, n = 5). Due to the unavailability of analyte-free biological matrix, selectivity of analytes were assessed in pure albumin solution containing internal standards. Matrix effects were determined calculating recovery rates and precision of each compound in human blood samples. Direct comparison between different anticoagulants (EDTA, lithium-heparin) and serum was performed using whole blood from the same human donor. […]

A short description of data set [2]: Benchtop stability of QC samples at room temperature. In kind it is in vitro ADME. The following applies: QC in 70 g/L albumin in PBS, 60 min. at room temperature, LC-MS/MS. How it is done: as §1, §2, §3
Setting [3] is: QC2 (0.025 µM; C40^SNP see Table 1).
Where [4] appears, read: QC3 (0.3 µM; C40^SNP 0.1073 µM).

For the sequence “AIPMSIPPEVKFNKPFVFLMIDQNTKSPLFMGKVVNPTQK [C40^SNP]”, in data set [1] (setting [3]), the freeze/ thaw stability, accuracy (mean of n=3) came to 103% and the “freeze/ thaw stability, deviation from freshly processed QCs (mean of n=3)” value (“freeze/ thaw stability, deviation” for short) is -3%. In data set [1] (setting [4]), the freeze/ thaw stability, accuracy (mean of n=3) turned out to be 100% and the “freeze/ thaw stability, deviation” value is -3%. Also, in data set [2] (setting [3]), the benchtop stability, accuracy (mean of n=3) was 104% and the “benchtop stability, deviation from freshly processed QCs (mean of n=3)” value (from here on “benchtop stability, deviation”) is on record as -1%. Moreover, in data set [2] (setting [4]), the benchtop stability, accuracy (mean of n=3) came to 101% and the “benchtop stability, deviation” value is recorded as -2%.

“AIPMSIPPEVKFNKPFVFLMIEQNTKSPLFMGKVVNPTQK [C40^WT]”: in data set [1] (setting [3]), the freeze/ thaw stability, accuracy (mean of n=3) amounted to 107% and the “freeze/ thaw stability, deviation” value stood at 5%. In data set [1] (setting [4]), the freeze/ thaw stability, accuracy (mean of n=3) was 99% and the “freeze/ thaw stability, deviation” value is -4%. In addition, in data set [2] (setting [3]), the benchtop stability, accuracy (mean of n=3) was 109% and the “benchtop stability, deviation” value worked out at 6%. In data set [2] (setting [4]), the benchtop stability, accuracy (mean of n=3) was 101% and the “benchtop stability, deviation” value was -3%.

With “AMFLEAIPMSIPPEVKFNKPFVFLMIDQNTKSPLFMGKVVNPTQK [C45^SNP]”, in data set [1] (setting [3]), the freeze/ thaw stability, accuracy (mean of n=3) came to 109% and the “freeze/ thaw stability, deviation” value is -3%. Further, in data set [1] (setting [4]), the freeze/ thaw stability, accuracy (mean of n=3) was 112% and the “freeze/ thaw stability, deviation” value is reported as -2%. Moreover, in data set [2] (setting [3]), the benchtop stability, accuracy (mean of n=3) was found to be 114% and the “benchtop stability, deviation” value stood at 1%. Moreover, in data set [2] (setting [4]), the benchtop stability, accuracy (mean of n=3) came out at 112% and the “benchtop stability, deviation” value was -2%.

Take “AMFLEAIPMSIPPEVKFNKPFVFLMIEQNTKSPLFMGKVVNPTQK [C45^WT]”: in data set [1] (setting [3]), the freeze/ thaw stability, accuracy (mean of n=3) turned out to be 108% and the “freeze/ thaw stability, deviation” value is -6%. Further, in data set [1] (setting [4]), the freeze/ thaw stability, accuracy (mean of n=3) amounted to 117% and the “freeze/ thaw stability, deviation” value was -2%. Also, in data set [2] (setting [3]), the benchtop stability, accuracy (mean of n=3) was determined as 116% and the “benchtop stability, deviation” value was found to be 1%. For the same sequence, in data set [2] (setting [4]), the benchtop stability, accuracy (mean of n=3) was 117% and the “benchtop stability, deviation” value is -3%.

For the sequence “FLEAIPMSIPPEVKFNKPFVFLMIDQNTKSPLFMGKVVNPTQK [C43^SNP]”, in data set [1] (setting [3]), the freeze/ thaw stability, accuracy (mean of n=3) was 105% and the “freeze/ thaw stability, deviation” value was -4%. In addition, in data set [1] (setting [4]), the freeze/ thaw stability, accuracy (mean of n=3) came out at 107% and the “freeze/ thaw stability, deviation” value was -3%. In data set [2] (setting [3]), the benchtop stability, accuracy (mean of n=3) is 109% and the “benchtop stability, deviation” value worked out at 1%. Moreover, in data set [2] (setting [4]), the benchtop stability, accuracy (mean of n=3) was 107% and the “benchtop stability, deviation” value is on record as -3%.

On to “FLEAIPMSIPPEVKFNKPFVFLMIEQNTKSPLFMGKVVNPTQK [C43^WT]”, for which, in data set [1] (setting [3]), the freeze/ thaw stability, accuracy (mean of n=3) came out at 103% and the “freeze/ thaw stability, deviation” value is -2%. Further, in data set [1] (setting [4]), the freeze/ thaw stability, accuracy (mean of n=3) was 108% and the “freeze/ thaw stability, deviation” value is listed as -2%. In data set [2] (setting [3]), the benchtop stability, accuracy (mean of n=3) was 110% and the “benchtop stability, deviation” value is 4%. In data set [2] (setting [4]), the benchtop stability, accuracy (mean of n=3) was 109% and the “benchtop stability, deviation” value is listed as -1%.

“IPMSIPPEVKFNKPFVFLMIDQNTKSPLFMGKVVNPTQK [C39^SNP]”: in data set [1] (setting [3]), the freeze/ thaw stability, accuracy (mean of n=3) was found to be 105% and the “freeze/ thaw stability, deviation” value is listed as -1%. Further, in data set [1] (setting [4]), the freeze/ thaw stability, accuracy (mean of n=3) was 102% and the “freeze/ thaw stability, deviation” value was -2%. Further, in data set [2] (setting [3]), the benchtop stability, accuracy (mean of n=3) came out at 102% and the “benchtop stability, deviation” value is recorded as -4%. In data set [2] (setting [4]), the benchtop stability, accuracy (mean of n=3) turned out to be 100% and the “benchtop stability, deviation” value is listed as -4%.
